Experimental data reported in publication PMC4231751, “Highly potent dUTPase inhibition by a bacterial repressor protein reveals a novel mechanism for gene expression control” (Nucleic Acids Research, 2014).

Target: T1, Φ11 dUTPase (Φ11DUT) (Staphylococcus phage phi 11, UniProt Q8SDV3)
T1 construct: tag-free, expressed from pETDuet-1; Q-sepharose and Superdex 75; homotrimer
Assay: phenol red proton release assay, […] nm
Type: biochemical
Conditions: 30 μM dUTP, 10 nM enzyme, 1 mM Hepes pH 7.5, 5 mM MgCl2, 150 mM KCl, 293 K

O=c1ccn([C@H]2C[C@H](O)[C@@H](COP(=O)(O)OP(=O)(O)OP(=O)(O)O)O2)c(=O)[nH]1 [dUTP]
phenol red proton release assay, 559 nm: Proton release during the transformation of dUTP into dUMP and PPi was followed continuously
